Our source for the melting point values is a melting point compilation (Tetko et al.; mined from patent text by program, amines drawn as free bases though some values may be those of a salt).

A value given as a limit tells only on which side of the number the result lay.

Broadly, the melting point is the temperature of the solid-liquid transition.

As to `CC(=O)c1ccc(Nc2cccc(-c3cnc(N)nc3)c2)c(N)c1`, the melting point lay within 228 to 230 °C. In turn, `Cc1cccc(-c2nc(CC(=O)O)sc2-c2ccnc(N)c2)c1` came in with a melting point of 132 to 133 °C. As to `CCN(CC)CCOc1ccc(Nc2ncc3c(n2)N(C)C(=O)N(c2cccc(Br)c2)C3)cc1`, the melting point was 150 °C. Compound `CC(C)(C)OC(=O)N1CCC(Oc2ccc(C3=NNC(=O)CC3c3ccccn3)cc2)CC1` (centres undefined) gave a melting point of 213 to 214 °C. Next, `NC(C(=O)O)C(O)CC(=O)O` (centres undefined): 137 to 138 °C; `COC(OC)C(=O)CC(C)(C)C(Cc1c(C)c(Br)cn1S(=O)(=O)c1ccc(C)cc1)[N+](=O)[O-]` (centres undefined): 114 to 115 °C; `CN(C)C=NS(=O)(=O)c1cc2cnc(C=O)cc2o1`: 186 to 188 °C. Next, `COc1ccc(Cn2c(N)cc(=O)[nH]c2=S)cc1OCc1ccccc1`: 239 to 240 °C. Then `Cc1cc(C2=NOC(c3cc(Cl)cc(Cl)c3)(C(F)(F)F)C2)ccc1C(=O)Nc1ncc(C#N)cn1` (centres undefined), with 118 to 121 °C; and `O=C1CCC(=O)N1Sc1ccccc1`, with 110 to 112 °C; and `CC(C)S(=O)(=O)c1ccc(Oc2ccc([N+](=O)[O-])c(NCCC#N)c2)c(Cl)c1`, with 140 °C.

In turn, `CCOC(=O)C1=C(C)NN=C(C(=O)OC)C1c1ccccc1[N+](=O)[O-]` (centres undefined) had a melting point of 168 to 169 °C.

Turning to `CNCCOc1ccc2nc(SCc3ccc(Cl)cc3)sc2c1`, the melting point was 56 to 58 °C. Then `CC(C)Cn1cnc2c(N)nc3cnccc3c21`, with 306 to 307 °C; and `CN1CCN(C(=O)Cn2nnnc2S)CC1`, with over 250 °C. Regarding `NCc1ccc(N2CCC2)cc1`, the melting point lay in the range of 58 to 60 °C. In turn, `COc1cccc(C)c1N(C(C)=O)C(C)=O` displayed a melting point of 116 to 119 °C.

Consider `Cc1cc(C(=O)N2Cc3ccccc3Cc3ccccc32)ccc1N`, for which the melting point was in the range of 203 to 204 °C. Next, `CCc1nn(CCN)c(CO)c1Oc1cc(Cl)cc(Cl)c1`: 105 to 107 °C.

`Cc1cc(F)ccc1C(=C(C=CC(O)CC(=O)CC(=O)OC(C)(C)C)c1nnnn1C)c1ccc(F)cc1C` (centres undefined) displayed a melting point of 65 to 72 °C. Next, `CCCc1ccc(-c2cc(NC(=O)C3Cc4ccccc4C3)n[nH]2)cc1`: 211 to 213 °C; `CC(=O)Nc1cc(Cl)c([N+](=O)[O-])cc1CCOC(C)=O`: 153 °C; `Cc1ccc(C)n1-c1ccc(OC(C)(C)C(=O)O)cc1`: 178 to 180 °C. Then `Cc1nnc2n1CC(=O)N(C)c1ccc(Cl)cc1-2`, with 228 to 230 °C; and `CSC(=NC#N)NS(=O)(=O)c1cc(Cl)ccc1Cl`, with 145 °C.

`Cc1cc2nncn2nc1-c1cccc(N)c1`: the melting point lay in the range of 182 to 186 °C. Next, `c1ccc(-n2c(-c3cccc(OCCN4CCCCC4)c3)nc3ccccc32)cc1`: 68 °C; `Cc1cc2c(c3c1NC(=O)CC3)OC(CN(C)C(=O)CCCO)C2` (centres undefined): 141 to 143 °C. Next, `Cc1nnc2n1-c1sc(C(=O)O)cc1C(c1ccccc1Cl)=NC2`: 302 °C; `COc1cc(OC)cc(C(=O)NC(NC(=NC#N)Nc2ccc(Cl)nc2)C(C)(Cl)Cl)c1` (centres undefined): 193 to 195 °C; `CCCCCCCCCCCCCCCCCCNC(=O)OCC(CNS(=O)(=O)CCCI)COC` (centres undefined): 69 to 70 °C. In turn, `CCCn1nc2c(N)nc3ccccc3c2c1CCCc1cc(-c2cccnc2)no1` showed a melting point of 192 to 193 °C.

Turning to `CCCN(Cc1ccc(-c2ccccc2-c2nnn[nH]2)cc1)c1nc(OCc2ccccc2)ccc1C(=O)O`, the melting point lay within 68 to 82 °C. Compound `OC(CCSc1cccc2ccccc12)CCc1cccnc1` (centres undefined) had a melting point of 58 to 59 °C. Next, `CCC(=O)C(=Cc1cc(O)c(O)c([N+](=O)[O-])c1)C(=O)CC`: 133 to 135 °C. In turn, `CC1(CN2CCC(Cc3ccc(F)cc3)CC2)CC(c2ccc3[nH]c(=O)oc3c2)=NO1` (centres undefined) gave a melting point of 82 to 86 °C. As for `C=CC(=O)Oc1cccc(-c2ccc3cc(OC(=O)C=C)ccc3c2)c1`, the melting point was found to be 75.4 °C. The compound `CNc1nc(-c2cccc(NC(=O)c3ccc(OC)c(Cl)c3)c2)c2cc(OC)c(OC)cc2n1` registered a melting point of 130 to 132 °C. For `CCCCN(CCCC)C(=O)/C=C/c1ccc(Cn2c(-c3ccc(F)cc3)c(C)c3cc(O)ccc32)cc1`, the melting point came to 180 °C. Turning to `CCCCCCCCCCCCCCCCCCOC(C)c1ccc(-c2ccc(C(=O)O)cc2)cc1` (single isomer, unassigned; (+)), the melting point was in the range of 145 to 146 °C. As for `O=C1CCC(CCC(=O)OCc2cccc(Cl)c2)N1` (centres undefined), the melting point lay within 90 to 91 °C. Next, `CC(C)c1ccc2c(=O)cc(C(=O)O)[nH]c2c1`: over 240 °C; `O=C(O)CCC(=NO)c1ccc(-c2ccc(Cl)s2)cc1`: 172 to 174 °C; `CCOC(=O)C1=CNC2=C(C(=O)CCC2)C1c1nccs1` (centres undefined): 239 to 240 °C. Then `Cc1nc2ccccn2c(=O)c1CCN1CCC(Nc2nc3ccccc3n2Cc2cnccn2)CC1`, with 204 °C; and `O=C(Nc1cccc(-c2cc(-c3c(Cl)cccc3Cl)no2)c1)C(Cl)Cl`, with 167 °C; and `C=C(C)OC1OC(n2cc(C)c(=O)n(CC(=O)c3ccccc3)c2=O)CC1OC(=O)c1ccccc1` (centres undefined), with 112 to 113 °C. Next, `CCCCc1nc2c(N)nc3ccccc3c2n1CCCNC(=O)c1ccccc1`: 189 to 190 °C.

`OCc1c[nH]c(-c2ccc(OCc3ccccc3)cc2)n1`: the melting point lay within 183 to 185 °C. `COc1ccc(Cl)cc1-c1nnn(-c2ccc(C(F)(F)F)cc2Cl)c1N` registered a melting point of 153 °C. Take `Cc1cc(Br)c(NC(=O)CBr)c(Br)n1`: the melting point fell in the range of 197 to 199 °C. Next, `CCOC(=O)C1=C(C)NC(C)=C(C(=O)OCC)C1c1ncccc1O`: 238 to 239 °C. `CCOC(=O)CCNC=C(C(=O)OCC)C(=O)c1cc(F)c(F)c(F)c1F`: the melting point is 96 to 97 °C. Next, `CC(C)(C)OC(=O)NCCCCCN(OCc1ccccc1)C(=O)CCC(=O)O`: 93 to 94 °C. Next, `CC(C)(C)OC(=O)CN(CCO)C(=O)c1cc([N+](=O)[O-])ccc1F`: 116 to 118 °C; `CCCCNc1cccc2c1C(=O)c1ccccc1C2=O`: 78 to 79 °C.

Compound `O=C(O)CNC(=O)c1sc(Nc2ccccc2)c2c1CCc1cnoc1-2` yielded a melting point of 193 to 194 °C. For the compound `Cc1ccc(S(=O)(=O)N(c2ccc(Cl)cc2[N+](=O)[O-])C(C)C)cc1`, the melting point was in the range of 112 to 114 °C. Turning to `O=C(O)Cc1cc(Cc2cccc(Oc3ccccc3)c2)ccc1Nc1c(Cl)cccc1Cl`, the melting point fell in the range of 116 to 117 °C. Compound `CC(=O)SCC(C(=O)NCCc1nnn[nH]1)C(F)(F)F` (centres undefined) had a melting point of 157 to 160 °C. In turn, `CCN(CC)CC(=O)Nc1ccc(NC(=O)Nc2ccc(N(CCCl)CCCl)cc2)cc1` showed a melting point of 209 to 211 °C. Next, `COC(=O)C1=C(C)NC(C)=C(C(=O)OC)C1c1ccccc1CC(OC)OC`: 113 to 114 °C. As for `Cc1ccc(S(=O)(=O)NC2CCCCC2NC(=O)OC(C)(C)C)cc1` (centres undefined), the melting point was in the range of 137 to 139 °C. Then `COc1cc2c(cc1O)CCN(C(=O)c1cc(OC)c(OC)c(OC)c1)C2=O`, with 175 to 176 °C. Then `O=C1OC(=O)c2c1ccc1ccc3ccccc3c21`, with 245 °C; and `COC(=O)[C@@H]1CCN1S(=O)(=O)c1ccc(Cl)c(COc2cccc3c(-n4ccnc4)cc(C)nc23)c1Cl`, with 80 °C.

For the compound `CS(=O)c1ccc(-c2oncc2CCCO)cc1` (centres undefined), the melting point fell in the range of 73 to 74 °C.

Take `COc1ccc(-c2c(C)c3cccc4c3n2CC(CCN2CCN(c3cc(C)ccn3)CC2)O4)cc1` (centres undefined): the melting point was 165 °C.

As to `CS(=O)(=O)Nc1ccc(/C=C\COCCCCCCO)cc1`, the melting point is 65 to 67 °C. Next, `NNc1nc(Cl)nc2ccccc12`: over 280 °C; `CC(C)(C#N)C1(c2ccc(Cl)cc2)CCC1`: 73 to 75 °C; `FC1=CC2NC(=S)CCC2C=C1c1cccnc1` (centres undefined): 248 °C.

With `O=C(c1ccc(Cl)cc1)c1cc([N+](=O)[O-])ccc1N1CCC(O)CC1`, the melting point is 142 °C. Compound `CCOC(=O)C(=CNc1cc(OCc2ccccc2)c(OCc2ccccc2)cn1)C(=O)OCC` yielded a melting point of 117 °C. Next, `CC(=O)OCC1OC(n2cnc3c(NCC(c4ccccc4)c4ccccc4)nc(Cl)nc32)C(OC(C)=O)C1OC(C)=O` (centres undefined): 68 to 71 °C; `O=c1[nH]c2ccccc2c2c(CCC3CCNCC3)n(-c3ccccc3)nc12`: 250 to 252 °C; `COc1ncc(C(=O)O)cc1OC1CCCC1`: 191 to 192 °C. Then `CSc1ccc(Oc2ccc([N+](=O)[O-])cc2C#N)cc1`, with 124 to 126 °C. `Cc1ccc(-c2c(N)oc3c(C(C)(C)C)cc(C(C)(C)C)cc23)cc1C` returned a melting point of 128 to 130 °C. In the case of `COc1ccc(-c2cccnc2)cc1`, the melting point was in the range of 62 to 63 °C.

The compound `CCCCCCCCCCCCNC(=O)c1cc(Br)c(OCCNC(=O)OC)c(-c2cccc(C(F)(F)F)c2)c1` showed a melting point of 79.6 to 80.5 °C.

On to `CSC(=C[N+](=O)[O-])NCCCCc1ccccn1`, for which the melting point was found to be 78 °C.

For the compound `FC(F)(F)Oc1ccc(-n2cc(CBr)cn2)cc1`, the melting point is 50 to 51 °C. Then `CC1CC(=O)c2cc(Cl)ccc2O1` (centres undefined), with 100 to 102 °C; and `CC(C)(C)OC(=O)Nc1ccc(F)nc1`, with 112 to 113 °C. Then `Cc1ccc2c(c1)nnn2CNc1ccccc1`, with 149 to 152 °C; and `O=C(c1ccc(-c2ccccc2)nc1)N1Cc2cccn2Cc2ccccc21`, with 171 to 174 °C; and `COc1ccc2c(-c3ccc(F)cc3F)noc2c1Cl`, with 189 to 191 °C. Then `CCOC(=O)CNC(=O)Nc1ccc(OC)cc1F`, with 158 to 159 °C.
